This is an account of results in patent publication US7244758B2, “N-type calcium channel blockers” (Neuromed Pharmaceuticals Ltd., priority 2003, dated 2007).

The target in experiment [1] is T1, rat brain N-type calcium channel subunits (α1B+α2δ+β1b) (Rattus norvegicus, UniProt Q02294).
T1 construct: expressed in transfected cells; host or cells: HEK 293
The experiment can be described thus: N-type calcium channel block, whole cell patch clamp in HEK 293 cells. The class given is cell-based. Particulars: holding −80 mV to +10 mV, 5 mM Ba. As for the experimental part:
Antagonist activity was measured using whole cell patch recordings on human embryonic kidney cells either stably or transiently expressing rat α1B+α2δ+β1b channels (N-type channels) with 5 mM barium as a charge carrier. P/Q-type channels (α1A+α2δ+β1b cDNA subunits) and L-type channels (α1C+α2δ+β1b cDNA subunits) were also transiently expressed in HEK 293 cells.
For transient expression, host cells, such as human embryonic kidney cells, HEK 293 (ATCC# CRL 1573) were grown in standard DMEM medium supplemented with 2 mM glutamine and 10% fetal bovine serum. HEK 293 cells were transfected by a standard calcium-phosphate-DNA coprecipitation method using the rat α1B+β1b+α2δ N-type calcium channel subunits in a vertebrate expression vector (for example, see Current Protocols in Molecular Biology).
After an incubation period of from 24 to 72 hrs the culture medium was removed and replaced with external recording solution (see below). Whole cell patch clamp experiments were performed using an Axopatch 200B amplifier (Axon Instruments, Burlingame, Calif.) linked to an IBM compatible personal computer equipped with pCLAMP software. Borosilicate glass patch pipettes (Sutter Instrument Co., Novato, Calif.) were polished (Microforge, Narishige, Japan) to a resistance of about 4 MΩ when filled with cesium methanesulfonate internal solution (composition in MM: 109 CsCH3 SO4, 4 MgCl2, 9 EGTA, 9 HEPES, pH 7.2). Cells were bathed in 5 mM Ba^++ (in mM: 5 BaCl2, 1 MgCl2, 10 HEPES, 40 tetraethylammonium chloride, 10 glucose, 87.5 CsCl pH 7.2). […] Drugs were perfused directly into the vicinity of the cells using a microperfusion system.
Normalized dose-response curves were fit (Sigmaplot 4.0, SPSS Inc., Chicago, Ill.) by the Hill equation to determine IC50 values. Steady-state inactivation curves were plotted as the normalized test pulse amplitude following 5 s inactivating prepulses at +10 mV increments. Inactivation curves were fit (Sigmaplot 4.0) with the Boltzman equation, Ipeak (normalized)=1/(1+exp((V−Vh)z/25.6)), where V and Vh are the conditioning and half inactivation potentials, respectively, and z is the slope factor.
N-type calcium channel blocking activity was assayed in human embryonic kidney cells, HEK 293, stably transfected with the rat brain N-type calcium channel subunits (α1B+α2δ+β1b cDNA subunits). Alternatively, N-type calcium channels (α1B+α2δ+β1b cDNA subunits), L-type channels (α1C+α2δ+β1b cDNA subunits) and P/Q-type channels (α1A+α2δ+β1b cDNA subunits) were transiently expressed in HEK 293 cells. Briefly, cells were cultured in Dulbecco's modified eagle medium (DMEM) supplemented with 10% fetal bovine serum, 200 U/ml penicillin and 0.2 mg/ml streptomycin at 37° C. with 5% CO2. At 85% confluency cells were split with 0.25% trypsin/1 mM EDTA and plated at 10% confluency on glass coverslips. At 12 hours the medium was replaced and the cells transiently transfected using a standard calcium phosphate protocol and the appropriate calcium channel cDNA's. Fresh DMEM was supplied and the cells transferred to 28° C./5% CO2. Cells were incubated for 1 to 2 days to whole cell recording.
Whole cell patch clamp experiments were performed using an Axopatch 200B amplifier (Axon Instruments, Burlingame, Calif.) linked to a personal computer equipped with pCLAMP software. The external and internal recording solutions contained, respectively, 5 mM BaCl2, […], 10 mM HEPES, 40 mM TEACl, 10 mM glucose, 87.5 mM CsCl (pH 7.2) and 108 mM CsMS, 4 mM MgCl2, 9 mM EGTA, 9 mM HEPES (pH 7.2). Currents were typically elicited from a holding potential of −80 mV to +10 mV using Clampex software (Axon Instruments).

The target in experiment [2] is T2, human α1G T-type channels (Homo sapiens, UniProt O43497).
T2 construct: expressed in transfected cells
T2 sequence (O43497 whole entry): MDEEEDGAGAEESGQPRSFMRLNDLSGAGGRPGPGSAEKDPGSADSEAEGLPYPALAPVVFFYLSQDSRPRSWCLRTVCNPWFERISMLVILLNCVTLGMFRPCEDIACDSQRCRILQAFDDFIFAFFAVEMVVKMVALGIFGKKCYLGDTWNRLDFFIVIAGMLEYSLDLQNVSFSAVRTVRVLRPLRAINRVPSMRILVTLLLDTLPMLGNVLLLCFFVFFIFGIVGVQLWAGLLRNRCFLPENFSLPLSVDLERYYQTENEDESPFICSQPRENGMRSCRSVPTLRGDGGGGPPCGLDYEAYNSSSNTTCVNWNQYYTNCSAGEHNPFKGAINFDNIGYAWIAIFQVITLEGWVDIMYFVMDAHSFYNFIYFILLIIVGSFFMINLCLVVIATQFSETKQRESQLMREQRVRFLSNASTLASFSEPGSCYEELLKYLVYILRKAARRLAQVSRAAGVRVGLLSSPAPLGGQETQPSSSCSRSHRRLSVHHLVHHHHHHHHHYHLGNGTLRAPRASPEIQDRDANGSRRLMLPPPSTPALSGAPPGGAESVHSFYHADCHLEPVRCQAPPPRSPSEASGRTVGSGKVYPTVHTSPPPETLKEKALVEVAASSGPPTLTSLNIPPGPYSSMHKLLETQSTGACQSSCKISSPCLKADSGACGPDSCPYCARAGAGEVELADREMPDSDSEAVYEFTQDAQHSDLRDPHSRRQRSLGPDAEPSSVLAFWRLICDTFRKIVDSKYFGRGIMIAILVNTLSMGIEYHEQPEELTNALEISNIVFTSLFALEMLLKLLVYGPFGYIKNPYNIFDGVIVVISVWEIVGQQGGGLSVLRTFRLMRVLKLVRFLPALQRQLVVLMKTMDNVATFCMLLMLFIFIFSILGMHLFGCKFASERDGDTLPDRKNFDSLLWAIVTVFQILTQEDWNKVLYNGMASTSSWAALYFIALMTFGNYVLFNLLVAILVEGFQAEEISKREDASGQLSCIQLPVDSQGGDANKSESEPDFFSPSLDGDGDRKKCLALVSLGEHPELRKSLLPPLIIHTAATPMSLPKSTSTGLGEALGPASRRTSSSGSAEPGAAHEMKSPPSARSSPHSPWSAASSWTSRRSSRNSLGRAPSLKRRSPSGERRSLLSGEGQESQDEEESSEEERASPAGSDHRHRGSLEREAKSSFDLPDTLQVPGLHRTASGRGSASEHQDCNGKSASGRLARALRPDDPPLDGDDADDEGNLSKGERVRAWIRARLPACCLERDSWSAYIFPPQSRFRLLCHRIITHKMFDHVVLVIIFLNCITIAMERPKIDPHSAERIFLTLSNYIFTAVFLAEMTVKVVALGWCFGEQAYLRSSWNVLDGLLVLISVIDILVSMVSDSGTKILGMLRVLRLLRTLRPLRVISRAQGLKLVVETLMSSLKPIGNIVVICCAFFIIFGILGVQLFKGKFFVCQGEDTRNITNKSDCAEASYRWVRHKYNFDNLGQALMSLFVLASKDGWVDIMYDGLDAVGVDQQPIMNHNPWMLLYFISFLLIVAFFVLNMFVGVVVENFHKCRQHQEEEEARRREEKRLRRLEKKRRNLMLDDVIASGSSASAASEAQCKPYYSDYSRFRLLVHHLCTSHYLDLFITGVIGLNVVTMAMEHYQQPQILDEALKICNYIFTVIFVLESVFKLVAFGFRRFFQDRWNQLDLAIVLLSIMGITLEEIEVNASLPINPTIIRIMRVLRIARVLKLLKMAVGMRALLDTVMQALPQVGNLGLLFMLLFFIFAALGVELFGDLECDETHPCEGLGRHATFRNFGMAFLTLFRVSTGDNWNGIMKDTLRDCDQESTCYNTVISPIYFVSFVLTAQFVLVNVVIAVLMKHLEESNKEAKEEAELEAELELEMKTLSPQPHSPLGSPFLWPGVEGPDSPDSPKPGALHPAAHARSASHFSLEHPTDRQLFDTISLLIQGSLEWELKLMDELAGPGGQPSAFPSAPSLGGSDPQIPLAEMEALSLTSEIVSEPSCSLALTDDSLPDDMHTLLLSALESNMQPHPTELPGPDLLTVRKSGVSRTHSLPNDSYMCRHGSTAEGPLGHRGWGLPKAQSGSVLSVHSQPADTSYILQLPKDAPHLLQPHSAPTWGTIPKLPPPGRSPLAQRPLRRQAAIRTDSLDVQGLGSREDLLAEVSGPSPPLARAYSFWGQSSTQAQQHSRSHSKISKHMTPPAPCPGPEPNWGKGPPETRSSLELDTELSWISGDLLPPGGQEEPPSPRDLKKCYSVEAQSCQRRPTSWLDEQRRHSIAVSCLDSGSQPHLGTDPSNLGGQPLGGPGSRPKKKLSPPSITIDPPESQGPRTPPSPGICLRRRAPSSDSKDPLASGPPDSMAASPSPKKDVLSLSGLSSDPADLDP
Briefly: Block of α1G T-type channels, whole-cell patch clamp in HEK cells. Format: cell-based. The method, then:
Standard patch-clamp techniques were employed to identify blockers of T-type currents. Briefly, previously described HEK cell lines stably expressing human α1G T-type channels were used for all the recordings (passage #: 4-20, 37° C., 5% CO2). To obtain T-type currents, plastic dishes containing semi-confluent cells were positioned on the stage of a ZEISS AXIOVERT S100 microscope after replacing the culture medium with external solution (see below). Whole-cell patches were obtained using pipettes (borosilicate glass with filament, O.D.: 1.5 mm, I.D.: 0.86 mm, 10 cm length), fabricated on a SUTTER P-97 puller with resistance values of ˜5 MΩ (see below for internal solution).
In the non-inactivating protocol, the holding potential is set at −110 mV and with a pre-pulse at −100 mV for 1 second prior to the test pulse at −40 mV for 50 ms. […]
Test compounds were dissolved in external solution, 0.1-0.01% DMSO. After ˜10 min rest, they were applied by gravity close to the cell using a WPI microfil tubing. The “non-inactivated” pre-pulse was used to examine the resting block of a compound. The “inactivated” protocol was employed to study voltage-dependent block. However, the initial data shown below were mainly obtained using the non-inactivated protocol only. IC50 values are shown for various compounds of the invention in Table 6.

[3] abbreviates: low frequency stimulation 0.067 Hz (tonic block), read-out: IC50 at 0.067 Hz.
The mark [4] stands for this setting: pulse frequency 0.2 Hz (frequency dependent block), read-out: IC50 at 0.2 Hz.
Where [5] appears, read: inactivation protocol (voltage-dependent block), read-out: IC50 at −80 mV.
Setting [6] is: non-inactivating protocol, pre-pulse −100 mV (resting block), read-out: IC50 at −100 mV.

pIC50: −log10 of the molar value. Read-outs that look alike come from different tables or passages of the source.

T1 sequence (Q02294 whole entry): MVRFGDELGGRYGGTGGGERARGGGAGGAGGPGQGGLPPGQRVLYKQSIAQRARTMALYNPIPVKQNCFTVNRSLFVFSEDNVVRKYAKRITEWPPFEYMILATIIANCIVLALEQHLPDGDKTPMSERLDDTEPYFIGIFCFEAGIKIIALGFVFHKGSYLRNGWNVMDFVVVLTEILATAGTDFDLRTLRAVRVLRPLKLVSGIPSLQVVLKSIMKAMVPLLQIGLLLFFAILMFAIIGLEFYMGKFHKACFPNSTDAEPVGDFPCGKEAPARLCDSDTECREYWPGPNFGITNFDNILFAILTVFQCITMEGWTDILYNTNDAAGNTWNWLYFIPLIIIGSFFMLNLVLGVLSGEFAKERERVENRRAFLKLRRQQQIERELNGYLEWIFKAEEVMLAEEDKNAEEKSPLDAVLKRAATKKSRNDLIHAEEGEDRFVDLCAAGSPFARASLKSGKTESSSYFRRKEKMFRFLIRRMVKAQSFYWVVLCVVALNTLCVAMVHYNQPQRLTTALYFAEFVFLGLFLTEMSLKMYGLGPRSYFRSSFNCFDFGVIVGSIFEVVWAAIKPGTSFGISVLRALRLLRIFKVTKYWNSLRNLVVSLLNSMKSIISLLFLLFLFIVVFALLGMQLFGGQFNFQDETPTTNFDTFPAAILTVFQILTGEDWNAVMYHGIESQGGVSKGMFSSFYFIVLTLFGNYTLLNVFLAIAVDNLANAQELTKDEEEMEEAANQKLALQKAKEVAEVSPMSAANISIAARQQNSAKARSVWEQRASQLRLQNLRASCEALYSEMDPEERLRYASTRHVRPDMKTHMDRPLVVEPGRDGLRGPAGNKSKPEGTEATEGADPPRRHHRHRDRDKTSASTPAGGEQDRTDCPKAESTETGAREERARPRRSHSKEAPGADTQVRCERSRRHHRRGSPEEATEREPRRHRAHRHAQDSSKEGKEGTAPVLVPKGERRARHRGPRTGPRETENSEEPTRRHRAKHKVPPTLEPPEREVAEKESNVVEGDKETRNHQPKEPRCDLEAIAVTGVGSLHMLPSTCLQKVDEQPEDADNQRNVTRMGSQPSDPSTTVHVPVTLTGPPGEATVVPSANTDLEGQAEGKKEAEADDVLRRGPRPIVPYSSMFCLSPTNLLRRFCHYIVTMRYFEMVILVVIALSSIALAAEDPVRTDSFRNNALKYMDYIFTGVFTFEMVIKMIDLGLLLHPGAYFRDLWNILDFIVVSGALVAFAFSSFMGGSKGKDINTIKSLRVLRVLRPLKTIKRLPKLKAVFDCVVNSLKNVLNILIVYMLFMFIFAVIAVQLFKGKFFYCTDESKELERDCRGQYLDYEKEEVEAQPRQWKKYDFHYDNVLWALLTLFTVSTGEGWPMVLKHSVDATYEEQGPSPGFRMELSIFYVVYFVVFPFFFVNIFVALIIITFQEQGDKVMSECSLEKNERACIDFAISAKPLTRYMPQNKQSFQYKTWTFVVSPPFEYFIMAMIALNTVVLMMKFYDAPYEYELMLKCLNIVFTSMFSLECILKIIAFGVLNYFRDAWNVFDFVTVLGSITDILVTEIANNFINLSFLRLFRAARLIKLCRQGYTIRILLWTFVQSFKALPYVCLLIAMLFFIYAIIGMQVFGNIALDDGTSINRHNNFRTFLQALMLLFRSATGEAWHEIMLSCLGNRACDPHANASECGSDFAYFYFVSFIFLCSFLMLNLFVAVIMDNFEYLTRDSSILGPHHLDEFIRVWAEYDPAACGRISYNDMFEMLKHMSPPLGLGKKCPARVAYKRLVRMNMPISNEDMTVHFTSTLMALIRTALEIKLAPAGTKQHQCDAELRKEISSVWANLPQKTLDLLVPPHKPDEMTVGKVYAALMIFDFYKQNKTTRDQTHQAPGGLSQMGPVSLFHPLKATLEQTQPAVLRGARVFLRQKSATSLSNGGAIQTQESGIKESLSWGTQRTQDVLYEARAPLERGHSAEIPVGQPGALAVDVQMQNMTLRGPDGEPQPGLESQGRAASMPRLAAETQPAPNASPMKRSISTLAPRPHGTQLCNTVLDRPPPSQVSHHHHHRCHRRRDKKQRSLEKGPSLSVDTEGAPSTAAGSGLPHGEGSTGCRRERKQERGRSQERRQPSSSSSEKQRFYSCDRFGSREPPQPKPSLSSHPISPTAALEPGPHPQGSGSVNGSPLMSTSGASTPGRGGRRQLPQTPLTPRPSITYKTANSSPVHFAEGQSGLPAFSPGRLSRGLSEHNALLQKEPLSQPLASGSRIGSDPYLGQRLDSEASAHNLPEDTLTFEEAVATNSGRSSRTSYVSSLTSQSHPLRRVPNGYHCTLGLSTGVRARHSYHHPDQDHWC

For `O=C(CN(c1ccccc1)c1ccccc1)NCC1CCN(C(c2ccccc2)c2ccccc2)C1` (stereo not drawn) [Compound P45], the negative-log IC50 (pIC50) in experiment [1] (setting [3]) was 6.29; in experiment [1] (setting [4]) it was 6.61; in experiment [2] (setting [5]), 7.17; in experiment [2] (setting [6]) it was 6.39.
With `O=C(CC(c1ccccc1)c1ccccc1)NCC1CCN(C(c2ccccc2)c2ccccc2)C1` (stereo not drawn) [Compound P1], the pIC50 in experiment [1] (setting [3]) is 7.21.
In the case of `COc1cc(CN(C)CC2CCN(C(=O)CCCCC(c3ccc(F)cc3)c3ccc(F)cc3)C2)cc(OC)c1OC` (stereo not drawn) [Compound P58], the negative-log IC50 (pIC50) is 6.92 in experiment [1] (setting [3]), 7.07 in experiment [1] (setting [4]), 7.24 in experiment [2] (setting [5]) and 7.10 in experiment [2] (setting [6]).
For `Cc1cc(C)cc(NCC(=O)NCC2CCN(C(=O)CCCCC(c3ccc(F)cc3)c3ccc(F)cc3)C2)c1` (stereo not drawn) [Compound P40] the same measures were 7.72, 8.52, 6.98 and 6.48.
On the same counts, the results for `O=C(CC(c1ccccc1)c1ccccc1)NCC1CCN(C(c2ccccc2)c2ccc(Cl)cc2)C1` (stereo not drawn) [Compound P26] are 6.58, 6.63, 7.38 and 6.86.
For `COc1cc(C(=O)NCC2CCN(C(=O)CCCCC(c3ccc(F)cc3)c3ccc(F)cc3)C2)cc(OC)c1OC` (stereo not drawn) [Compound P3], the pIC50 in experiment [1] (setting [3]) was 6.38; in experiment [2] (setting [6]), 7.07.
For `COc1c(C(C)(C)C)cc(C(=O)N2CCC(CNC(=O)CCCCC(c3ccc(F)cc3)c3ccc(F)cc3)C2)cc1C(C)(C)C` (stereo not drawn) [Compound P11] the same measures were 8.00 and 7.57.
Regarding `CN(CCN(c1ccccc1)c1ccccc1)CC1CCN(C(c2ccccc2)c2ccccc2)C1` (stereo not drawn) [Compound P55], the negative-log IC50 (pIC50) in experiment [1] (setting [3]) was 6.49; in experiment [1] (setting [4]), 6.65; in experiment [2] (setting [5]), 7.74; in experiment [2] (setting [6]), 7.24.
For `O=C(CN(CC(=O)N(c1ccccc1)c1ccccc1)CC1CCN(C(c2ccccc2)c2ccccc2)C1)N(c1ccccc1)c1ccccc1` (stereo not drawn) [Compound P46] the same measures were 8.15, 9.00, 8.30 and 7.64.
For `CC(C)(C)c1cc(C(=O)NCC2CCN(C(=O)CCCCC(c3ccc(F)cc3)c3ccc(F)cc3)C2)cc(C(C)(C)C)c1` (stereo not drawn) [Compound P44] the same measures were 6.58, 6.92, 7.54 and 7.28.
With `COc1cc(CN2CCC(CNCCCCCC(c3ccc(F)cc3)c3ccc(F)cc3)C2)cc(OC)c1OC` (stereo not drawn) [Compound P6], in experiment [1] (setting [3]), the negative logarithm of the IC50 (pIC50) was 6.67.
Turning to `O=C(NCC1CCN(C(c2ccccc2)c2ccccc2)C1)NC(c1ccccc1)c1ccccc1` (stereo not drawn) [Compound P47], the pIC50 was 6.53 in experiment [1] (setting [3]), 6.73 in experiment [1] (setting [4]), 8.10 in experiment [2] (setting [5]) and 7.62 in experiment [2] (setting [6]).
For `COc1c(C(C)(C)C)cc(C(=O)NCC2CCN(CCCCCC(c3ccc(F)cc3)c3ccc(F)cc3)C2)cc1C(C)(C)C` (stereo not drawn) [Compound P19], the pIC50 in experiment [2] (setting [6]) was 7.15.
For the compound `COc1cc(C(=O)NCC2CCN(CCCCCC(c3ccc(F)cc3)c3ccc(F)cc3)C2)cc(OC)c1OC` (stereo not drawn) [Compound P20], the negative logarithm of the IC50 (pIC50) was 6.35 in experiment [1] (setting [3]) and 6.55 in experiment [1] (setting [4]).
In the case of `COc1c(C(C)(C)C)cc(CN2CCC(CNCCCCCC(c3ccc(F)cc3)c3ccc(F)cc3)C2)cc1C(C)(C)C` (stereo not drawn) [Compound P12], the pIC50 in experiment [1] (setting [3]) was 7.49.
Turning to `O=C(CC(c1ccc(F)cc1)c1ccc(F)cc1)NCC1CCN(C(c2ccccc2)c2ccccc2)C1` (stereo not drawn) [Compound P51], the negative-log IC50 (pIC50) in experiment [1] (setting [3]) is 7.14; in experiment [1] (setting [4]), 7.25.
Turning to `COc1c(C(C)(C)C)cc(C(=O)NCC2CCN(C(=O)CCCCC(c3ccc(F)cc3)c3ccc(F)cc3)C2)cc1C(C)(C)C` (stereo not drawn) [Compound P42], the values for the pIC50 in experiment [2] (setting [5]) and in experiment [2] (setting [6]) were 7.23 and 7.03, respectively.
Turning to `CC(C)(C)c1ccc(C(c2ccccc2)N2CCC(CNC(=O)CC(c3ccc(F)cc3)c3ccc(F)cc3)C2)cc1` (stereo not drawn) [Compound P52], the values for the pIC50 in experiment [1] (setting [3]) and in experiment [1] (setting [4]) were 6.87 and 6.96, respectively.
For the compound `COc1c(C(C)(C)C)cc(CNCC2CCN(CCCCCC(c3ccc(F)cc3)c3ccc(F)cc3)C2)cc1C(C)(C)C` (stereo not drawn) [Compound P14], the pIC50 in experiment [1] (setting [3]) is 7.41.
The same measure, in the same setting: as for `COc1cc(CNCC2CCN(CCCCCC(c3ccc(F)cc3)c3ccc(F)cc3)C2)cc(OC)c1OC` (stereo not drawn) [Compound P4], the figure is 6.40.
For `CN(CC1CCN(C(c2ccccc2)c2ccccc2)C1)C(=O)CC(c1ccccc1)c1ccccc1` (stereo not drawn) [Compound P53], the negative logarithm of the IC50 (pIC50) is 6.65 in experiment [1] (setting [3]) and 6.80 in experiment [1] (setting [4]).
As to `CC(C)(C)c1cc(C(=O)N2CCC(CNC(=O)CCCCC(c3ccc(F)cc3)c3ccc(F)cc3)C2)cc(C(C)(C)C)c1O` (stereo not drawn) [Compound P9], the negative-log IC50 (pIC50) in experiment [1] (setting [3]) is 7.82.
Consider `CC(C)(C)c1cc(C(=O)NCC2CCN(C(=O)CCCCC(c3ccc(F)cc3)c3ccc(F)cc3)C2)cc(C(C)(C)C)c1O` (stereo not drawn) [Compound P7], for which the negative-log IC50 (pIC50) in experiment [1] (setting [3]) is 7.31.
The same measure, in the same setting: under `CC(C)(C)c1cc(CNCC2CCN(CCCCCC(c3ccc(F)cc3)c3ccc(F)cc3)C2)cc(C(C)(C)C)c1` (stereo not drawn) [Compound P18] stands 7.55.
`O=C(CC(c1ccc(F)cc1)c1ccc(F)cc1)NCC1CCN(C(c2ccccc2)c2ccc(F)cc2)C1` (stereo not drawn) [Compound P50]: the negative-log IC50 (pIC50) was 7.12 in experiment [1] (setting [3]) and 7.28 in experiment [1] (setting [4]).
As to `CC(C)(C)c1cc(CNCC2CCN(CCCCCC(c3ccc(F)cc3)c3ccc(F)cc3)C2)cc(C(C)(C)C)c1O` (stereo not drawn) [Compound P8], the negative logarithm of the IC50 (pIC50) in experiment [1] (setting [3]) was 7.46.
On to `CN(C)CCOc1c(C(C)(C)C)cc(C(=O)N2CCC(CNC(=O)CCCCC(c3ccc(F)cc3)c3ccc(F)cc3)C2)cc1C(C)(C)C` (stereo not drawn) [Compound P23], for which the negative logarithm of the IC50 (pIC50) in experiment [1] (setting [3]) was 6.39; in experiment [1] (setting [4]), 6.70.
On the same counts, the results for `CN(CCC(c1ccccc1)c1ccccc1)CC1CCN(C(c2ccccc2)c2ccccc2)C1` (stereo not drawn) [Compound P56] are 6.86 and 7.04.
On the same counts, the results for `COc1cc(C(=O)N2CCC(CN(C)CCCCCC(c3ccc(F)cc3)c3ccc(F)cc3)C2)cc(OC)c1OC` (stereo not drawn) [Compound P63] are 6.42 and 6.48.
For `O=C(NCC1CCN(CCCCCC(c2ccc(F)cc2)c2ccc(F)cc2)C1)c1cc(C(F)(F)F)cc(C(F)(F)F)c1` (stereo not drawn) [Compound P21] the same measures were 6.68 and 6.82.
